# Measured values: ChEMBL document CHEMBL1201862, “PubChem BioAssay data set” (2004)
#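 Tested at 5 concentrations; 48 h exposure; 96-well plates; endpoints linearly interpolated, else capped at highest concentration. The concentration for 50% growth inhibition is given as GI50.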 Active and inactive are the calls of the source. Cut-off read from the data, not from the text of the source: active = GI50 up to about 1.1 µM and inactive = higher.
# Key:
# Assay in all cases: DTP human tumour cell line panel, 48 h
# HOP-92 = tested on: HOP-92
# SK-MEL-5 = tested on: SK-MEL-5
# SF-539 = tested on: SF-539
# CCRF-CEM = tested on: CCRF-CEM
# NCI-H23 = tested on: NCI-H23
# RXF 631 = tested on: RXF 631
# NCI-H522 = tested on: NCI-H522
# MOLT-4 = tested on: MOLT-4
# CAKI-1 = tested on: CAKI-1
# HCT-15 = tested on: HCT-15
# SK-OV-3 = tested on: SK-OV-3
# A549 = tested on: A549
# U-251 = tested on: U-251
# DMS-114 = tested on: DMS-114
# K562 = tested on: K562
# SF-295 = tested on: SF-295
# UACC-257 = tested on: UACC-257
# HOP-62 = tested on: HOP-62
# KM12 = tested on: KM12
# SNB-78 = tested on: SNB-78
# NCI-H226 = tested on: NCI-H226
# HCT-116 = tested on: HCT-116
# SK-MEL-28 = tested on: SK-MEL-28
# SR = tested on: SR
# HT-29 = tested on: HT-29
# Malme-3M = tested on: Malme-3M
# OVCAR-4 = tested on: OVCAR-4
# ACHN = tested on: ACHN
# LXFL 529 = tested on: LXFL 529
# OVCAR-5 = tested on: OVCAR-5
# SF-268 = tested on: SF-268
# TK-10 = tested on: TK-10
# SW-620 = tested on: SW-620
# DLD-1 = tested on: DLD-1
# COLO 205 = tested on: COLO 205
# UO-31 = tested on: UO-31
# HOP-18 = tested on: HOP-18
# UACC-62 = tested on: UACC-62
# 786-0 = tested on: 786-0
# HL-60 = tested on: HL-60
# SNB-19 = tested on: SNB-19
# KM-20L2 = tested on: KM-20L2
# SK-MEL-2 = tested on: SK-MEL-2
# IGROV-1 = tested on: IGROV-1
# M14 = tested on: M14
# OVCAR-8 = tested on: OVCAR-8
# SN12C = tested on: SN12C
# SNB-75 = tested on: SNB-75
# EKVX = tested on: EKVX
# M19-MEL = tested on: M19-MEL
# OVCAR-3 = tested on: OVCAR-3
# DMS-273 = tested on: DMS-273
# HCC 2998 = tested on: HCC 2998
# NCI-H460 = tested on: NCI-H460
smiles,measurement,setting,value
Cc1ccc2nc3c(C)cc(=O)cc-3sc2c1,GI50,HOP-92,34.2 µM (inactive)
same,GI50,SK-MEL-5,15.5 µM (inactive)
same,GI50,SF-539,18.9 µM (inactive)
same,GI50,CCRF-CEM,10.5 µM (inactive)
same,GI50,NCI-H23,20.8 µM (inactive)
same,GI50,RXF 631,31.2 µM (inactive)
same,GI50,NCI-H522,17.8 µM (inactive)
same,GI50,MOLT-4,12.6 µM (inactive)
same,GI50,CAKI-1,19.3 µM (inactive)
same,GI50,HCT-15,16 µM
same,GI50,SK-OV-3,59.6 µM (inactive)
same,GI50,A549,20.1 µM (inactive)
same,GI50,U-251,31.8 µM (inactive)
same,GI50,DMS-114,17.5 µM (inactive)
same,GI50,K562,12.6 µM (inactive)
same,GI50,SF-295,31.5 µM (inactive)
same,GI50,UACC-257,20.2 µM (inactive)
same,GI50,HOP-62,27.5 µM (inactive)
same,GI50,KM12,22.9 µM (inactive)
same,GI50,SNB-78,32.5 µM (inactive)
same,GI50,NCI-H226,24.8 µM (inactive)
same,GI50,HCT-116,17.3 µM (inactive)
same,GI50,SK-MEL-28,25.9 µM (inactive)
same,GI50,SR,19.1 µM (inactive)
same,GI50,HT-29,36.2 µM (inactive)
same,GI50,Malme-3M,27.3 µM (inactive)
same,GI50,OVCAR-4,16.7 µM (inactive)
same,GI50,ACHN,17.7 µM (inactive)
same,GI50,LXFL 529,17.9 µM (inactive)
same,GI50,OVCAR-5,27.9 µM (inactive)
same,GI50,SF-268,25.6 µM (inactive)
same,GI50,TK-10,22.7 µM (inactive)
same,GI50,SW-620,17.2 µM (inactive)
same,GI50,DLD-1,30.3 µM (inactive)
same,GI50,COLO 205,27.6 µM (inactive)
same,GI50,UO-31,32 µM (inactive)
same,GI50,HOP-18,56.6 µM (inactive)
same,GI50,UACC-62,14.1 µM (inactive)
same,GI50,786-0,18.7 µM (inactive)
same,GI50,HL-60,2.45 µM (inactive)
same,GI50,SNB-19,38.1 µM (inactive)
same,GI50,KM-20L2,43.5 µM (inactive)
same,GI50,SK-MEL-2,20 µM (inactive)
same,GI50,IGROV-1,31.8 µM (inactive)
same,GI50,M14,19.6 µM (inactive)
same,GI50,OVCAR-8,22.8 µM (inactive)
same,GI50,SN12C,21.3 µM (inactive)
same,GI50,SNB-75,32.7 µM (inactive)
same,GI50,EKVX,28.2 µM (inactive)
same,GI50,M19-MEL,15.9 µM (inactive)
same,GI50,OVCAR-3,22 µM (inactive)
same,GI50,DMS-273,27.9 µM (inactive)
same,GI50,HCC 2998,26.9 µM (inactive)
same,GI50,NCI-H460,23.4 µM (inactive)
